For experiment [1], the system named is cellular histone deacetylase enzymatic activity in Jurkat E6-1 cells. Nature of the experiment: Inhibition of cellular HDAC activity in Jurkat E6-1 cells, fluorogenic substrate Boc-Lys(Tfa)-AMC. Type of experiment: cell-based. The following applies: Homo sapiens, read-out: Cell IC50. Put shortly:
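Jurkat E6.1 cells (75,000/well) were pre-treated with compound for 2 h at 37 °C, then given Boc-Lys(Tfa)-AMC (5× stock 500 μM) for 3 h. Cells were lysed with trypsin-containing buffer overnight, and released AMC fluorescence was read at Ex 355/Em 460 nm over a 16-point dilution series.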

The target in experiment [2] is human catalytic domain HDAC4 protein (amino acids 648-1032) (Homo sapiens (Human), UniProt P56524). Nature of the experiment: Inhibition of HDAC4 catalytic domain enzymatic activity, fluorogenic substrate Boc-Lys(Tfa)-AMC. The following applies: HDAC4 catalytic domain enzyme, read-out: Biochemical HDAC4 IC50.

In general, IC50 refers to the point on the concentration scale where inhibition reaches its midpoint.

human catalytic domain HDAC4 protein (amino acids 648-1032), sequence (P56524 648-1032): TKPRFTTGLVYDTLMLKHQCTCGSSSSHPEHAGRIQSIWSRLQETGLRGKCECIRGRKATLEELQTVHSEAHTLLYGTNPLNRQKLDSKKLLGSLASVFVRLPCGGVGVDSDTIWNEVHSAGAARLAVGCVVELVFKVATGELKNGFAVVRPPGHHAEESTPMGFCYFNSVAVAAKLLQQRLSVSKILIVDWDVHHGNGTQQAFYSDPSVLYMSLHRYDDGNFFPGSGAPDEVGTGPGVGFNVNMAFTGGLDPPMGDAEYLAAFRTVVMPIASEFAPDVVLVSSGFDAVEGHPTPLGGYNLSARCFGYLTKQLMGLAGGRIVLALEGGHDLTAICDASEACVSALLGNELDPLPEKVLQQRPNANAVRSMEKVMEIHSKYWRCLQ

In the case of `N#Cc1cccc(C2(C(=O)NO)CCCC2)c1` [Example 28, 1-(3-Cyanophenyl)-N-hydroxycyclopentanecarboxamide], the IC50 in experiment [1] and in experiment [2] was above 50000 nM throughout.
Consider `Cc1c(C2(C(=O)NO)CCCC2)ccc(F)c1F` [Example 29, 1-(3,4-Difluoro-2-methylphenyl)-N-hydroxycyclopentanecarboxamide], for which the half-maximal inhibitory concentration (IC50) in experiment [1] stood at 1410 nM; in experiment [2], 150 nM.
Turning to `Cc1c(F)cc(F)cc1C1(C(=O)NO)CCCC1` [Example 30, 1-(3,5-Difluoro-2-methylphenyl)-N-hydroxycyclopentanecarboxamide], the IC50 in experiment [1] was determined as 2630 nM; in experiment [2], 330 nM.
Regarding `Cc1cccc(Cl)c1C1(C(=O)NO)CCCC1` [Example 31, 1-(2-Chloro-6-methylphenyl)-N-hydroxycyclopentanecarboxamide], the IC50 in experiment [1] stood at 8100 nM; in experiment [2], 910 nM.
Regarding `CCc1ccccc1C1(C(=O)NO)CCCC1` [Example 32, 1-(2-Ethylphenyl)-N-hydroxycyclopentanecarboxamide], the values for the IC50 in experiment [1] and in experiment [2] were 6500 nM and 1100 nM, respectively.
With `COc1cccc(C2(C(=O)NO)CCCC2)c1C(F)(F)F` [Example 33, N-Hydroxy-1-(3-methoxy-2-(trifluoromethyl)phenyl)cyclopentanecarboxamide], the IC50 in experiment [1] and in experiment [2] was above 50000 nM throughout.
For `O=C(NO)C1(c2ccccc2C(F)(F)F)CCCC1` [Example 34, N-Hydroxy-1-(2-(trifluoromethyl)phenyl)cyclopentanecarboxamide], the values for the IC50 in experiment [1] and in experiment [2] were 46000 nM and 11000 nM, respectively.
As for `Cc1cc(F)ccc1C1(C(=O)NO)CCCC1` [Example 35, 1-(4-Fluoro-2-methylphenyl)-N-hydroxycyclopentanecarboxamide], the results for the IC50 in experiment [1] and in experiment [2] were 5600 nM and 570 nM, respectively.
Take `Cc1ccc(F)cc1C1(C(=O)NO)CCCC1` [Example 36, 1-(5-Fluoro-2-methylphenyl)-N-hydroxycyclopentanecarboxamide]: the IC50 in experiment [1] stood at 7500 nM; in experiment [2], 830 nM.
As to `Cc1cccc(F)c1C1(C(=O)NO)CCCC1` [Example 37, 1-(2-Fluoro-6-methylphenyl)-N-hydroxycyclopentanecarboxamide], the values for the IC50 in experiment [1] and in experiment [2] were 12000 nM and 1500 nM, respectively.
In the case of `O=C(NO)C1(c2cccc3ccsc23)CCCC1` [Example 38, 1-(Benzo[b]thiophen-7-yl)-N-hydroxycyclopentanecarboxamide], the half-maximal inhibitory concentration (IC50) was found to be 4600 nM in experiment [1] and 610 nM in experiment [2].
On the same counts, the results for `O=C(NO)[C@@]1(c2ccccc2)CC[C@@H](c2cncc(F)c2)C1` [Example 41, (1S,3R)-3-(5-fluoropyridin-3-yl)-N-hydroxy-1-phenylcyclopentanecarboxamide] are 13000 nM and 1900 nM.
Consider `O=C(NO)[C@@]1(c2ccccc2)CC[C@H](c2cncc(F)c2)C1` [Example 42, (1S,3S)-3-(5-fluoropyridin-3-yl)-N-hydroxy-1-phenylcyclopentanecarboxamide], for which the IC50 in experiment [1] was 7200 nM; in experiment [2] it was 1400 nM.
In the case of `Cc1c(F)cccc1[C@]1(C(=O)NO)CC[C@@H](c2cc(F)cnc2C2CC2)C1` [Example 43, (1S,3R)-3-(2-cyclopropyl-5-fluoropyridin-3-yl)-1-(3-fluoro-2-methylphenyl)-N-hydroxycyclopentanecarboxamide], the results for the IC50 in experiment [1] and in experiment [2] were 610 nM and 240 nM, respectively.
On the same counts, the results for `Cc1c(F)cccc1[C@]1(C(=O)NO)CC[C@@H](c2cc3c(cnn3C)cc2F)C1` [Example 81, (1S,3R)-3-(5-Fluoro-1-methyl-1H-indazol-6-yl)-1-(3-fluoro-2-methylphenyl)-N-hydroxycyclopentanecarboxamide] are 580 nM and 150 nM.

These data come from patent publication US9783488B2 (CHDI Foundation, Inc., priority 2013, dated 2017).
